Key:
[1] = tested on: engorged adult female cattle ticks (Boophilus microplus); test: Boophilus microplus injection test (BOOPMI inj); format: in vivo; details: assessed after 7 days
Method: Boophilus microplus Injection Test (BOOPMI inj) Solvent: dimethyl sulphoxide To produce a suitable active compound formulation, 10 mg of active compound are mixed with 0.5 ml of solvent and the concentrate is diluted with solvent to the desired concentration. 1 μl of the active compound solution is injected into the abdomen of 5 engorged adult female cattle ticks (Boophilus microplus). The animals are transferred into dishes and kept in a climate-controlled room. The efficacy is assessed after 7 days by laying of fertile eggs. Eggs which are not visibly fertile are stored in a climate-controlled cabinet until the larvae hatch after about 42 days. An efficacy of 100% means that none of the ticks has laid any fertile eggs; 0% means that all the eggs are fertile.

[2] = tested on: adult cat fleas (Ctenocephalides felis); test: Ctenocephalides felis oral test (CTECFE); format: in vivo; details: 100 ppm, oral in cattle blood, after 2 days
Method: Ctenocephalides felis-Oral Test ([…]) Solvent: dimethyl sulphoxide To produce a suitable active compound formulation, 10 mg of active compound are mixed with 0.5 ml of dimethyl sulphoxide. Dilution with citrated cattle blood gives the desired concentration. About 20 unfed adult cat fleas (Ctenocephalides felis) are placed into a chamber which is closed at the top and bottom with gauze. A metal cylinder whose bottom end is closed with parafilm is placed onto the chamber. The cylinder contains the blood/active compound preparation, which can be imbibed by the fleas through the parafilm membrane. After 2 days, the kill in % is determined 100% means that all of the fleas have been killed; 0% means that none of the fleas have been killed.

[3] = tested on: L1 larvae of the Australian sheep blowfly (Lucilia cuprina); test: Lucilia cuprina test (LUCICU); format: in vivo; details: 100 ppm, after 2 days
Method: Lucilia cuprina Test (LUCICU) Solvent: dimethyl sulphoxide To produce a suitable active compound formulation, 10 mg of active compound are mixed with 0.5 ml of dimethyl sulphoxide, and the concentrate is diluted with water to the desired concentration. About 20 L1 larvae of the Australian sheep blowfly (Lucilia cuprina) are transferred into a test vessel containing minced horsemeat and the active compound preparation of the desired concentration. After 2 days, the kill in % is determined 100% means that all the larvae have been killed; 0% means that none of the larvae have been killed.

[4] = tested on: green peach aphid (Myzus persicae); test: Myzus persicae spray test; format: in vivo; details: 100 g/ha, after 6 days
Method: Myzus persicae—Spray Test Solvent: 78 parts by weight of acetone • • 1.5 parts by weight of dimethylformamide Emulsifier: alkylaryl polyglycol ether To produce a suitable appropriate active compound formulation, 1 part by weight of active compound is dissolved using the specified parts by weight of solvent and made up with water containing an emulsifier concentration of 1000 ppm until the desired concentration is attained. To produce further test concentrations, the preparation is diluted with emulsifier-containing water. Discs of Chinese cabbage leaves (Brassica pekinensis) infested by all stages of the green peach aphid (Myzus persicae) are sprayed with an active compound formulation of the desired concentration. After 6 days, the efficacy in % is determined. 100% means that all the aphids have been killed; 0% means that none of the aphids have been killed.

[5] = tested on: larvae of the mustard beetle (Phaedon cochleariae); test: Phaedon cochleariae spray test (PHAECO); format: in vivo; details: 100 g/ha, after 7 days
Method: Phaedon cochleariae—Spray Test (PHAECO)
(§1) Solvent: 78.0 parts by weight of acetone • • 1.5 parts by weight of dimethylformamide
(§2) Emulsifier: alkylaryl polyglycol ether
(§3) To produce a suitable active compound formulation, 1 part by weight of active compound is dissolved using the specified parts by weight of solvent and made up with water containing an emulsifier concentration of 1000 ppm until the desired concentration is attained. To produce further test concentrations, the preparation is diluted with emulsifier-containing water.
After 7 days, the efficacy in % is determined. 100% means that all the beetle larvae have been killed; 0% means that no beetle larvae have been killed.

[6] = tested on: caterpillars of the armyworm (Spodoptera frugiperda); test: Spodoptera frugiperda spray test (SPODFR); format: in vivo; details: for efficacy: 100 g/ha, spray, after 7 days
Method: Spodoptera frugiperda—Spray Test (SPODFR) Solvent: 78.0 parts by weight of acetone • • 1.5 parts by weight of dimethylformamide Emulsifier: alkylaryl polyglycol ether To produce a suitable active compound formulation, 1 part by weight of active compound is dissolved using the specified parts by weight of solvent and made up with water containing an emulsifier concentration of 1000 ppm until the desired concentration is attained. To produce further test concentrations, the preparation is diluted with emulsifier-containing water. Leaf discs of maize (Zea mays) are sprayed with an active compound formulation of the desired concentration and, after drying, populated with caterpillars of the armyworm (Spodoptera frugiperda). After 7 days, the efficacy in % is determined 100% means that all the caterpillars have been killed; 0% means that no caterpillars have been killed. Spodoptera frugiperda—Spray Test (SPODFR) Solvent: 78.0 parts by weight of acetone • • 1.5 parts by weight of dimethylformamide Emulsifier: alkylaryl polyglycol ether To produce a suitable active compound formulation, 1 part by weight of active compound is dissolved using the specified parts by weight of solvent and made up with water containing an emulsifier concentration of 1000 ppm until the desired concentration is attained. To produce further test concentrations, the preparation is diluted with emulsifier-containing water. Leaf discs of maize (Zea mays) are sprayed with an active compound formulation of the desired concentration and, after drying, populated with caterpillars of the armyworm (Spodoptera frugiperda). After the desired period of time, the efficacy in % is determined. 100% means that all the caterpillars have been killed; 0% means that no caterpillars have been killed.

[7] = tested on: greenhouse red spider mite (Tetranychus urticae); test: Tetranychus urticae spray test, OP-resistant (TETRUR); format: in vivo; details: for efficacy: 100 g/ha, spray, after 6 days
Method: Tetranychus urticae—Spray Test, OP-Resistant (TETRUR)
as §1, §2, §3
Discs of bean leaves (Phaseolus vulgaris) infested by all stages of the greenhouse red spider mite (Tetranychus urticae) are sprayed with an active compound formulation of the desired concentration.
After 6 days, the efficacy in % is determined 100% means that all the spider mites have been killed; 0% means that none of the spider mites have been killed.
Tetranychus urticae—Spray Test; OP-Resistant (TETRUR)
After the desired period of time, the efficacy in % is determined 100% means that all the spider mites have been killed; 0% means that none of the spider mites have been killed.

[8] = log P by HPLC (EEC directive 79/831 Annex V.A8); format: physicochemical; details: HPLC, reversed-phase column (C18), 43° C., acidic range pH 2.7
Method: a) The determination of the M^+ by LC-MS in the acidic range is effected at pH 2.7, acetonitrile (contains 0.1% formic acid) and water as eluents; linear gradient from 10% acetonitrile to 95% acetonitrile, instrument: Agilent 1100 LC system, Agilent MSD system, HTS PAL. The log P values reported in the tables and Preparation Examples above were determined in accordance with EEC directive 79/831 Annex V.A8 by HPLC (High Performance Liquid Chromatography) using a reversed-phase column (C18). Temperature 43° C. The calibration is effected with unbranched alkan-2-ones (having 3 to 16 carbon atoms), for which the logP values are known.

[9] = tested on: adult houseflies (Musca domestica); test: Musca domestica test (MUSCDO); format: in vivo; details: 100 ppm, after 2 days
Method: Musca domestica Test (MUSCDO) Solvent: dimethyl sulphoxide To produce a suitable active compound formulation, 10 mg of active compound are mixed with 0.5 ml of dimethyl sulphoxide, and the concentrate is diluted with water to the desired concentration. Vessels containing a sponge treated with sugar solution and the active compound preparation of the desired concentration are populated with 10 adult houseflies (Musca domestica). After 2 days, the kill in % is determined. 100% means that all of the flies have been killed; 0% means that none of the flies have been killed.

[10] = tested on: mixed thrips population (Frankliniella occidentalis); test: Frankliniella occidentalis spray test (FRANOC); format: in vivo; details: 7 dat
Method: Frankliniella occidentalis—Spray Test (FRANOC) Solvent: 7 parts by weight of dimethylformamide Emulsifier: alkylaryl polyglycol ether To produce a suitable active compound formulation, 1 part by weight of active compound is dissolved using the specified parts by weight of solvent and made up with water containing an emulsifier concentration of 1000 ppm until the desired concentration is attained. To produce further test concentrations, the preparation is diluted with emulsifier-containing water. If the addition of ammonium salts or/and penetrants is required, these are each added in a concentration of 1000 ppm to the formulation solution. Bush bean plants (Phaseolus vulgaris) are sprayed with an active compound preparation of the desired concentration. After drying, the treated plants are infected with a mixed thrips population (Frankliniella occidentalis). After the desired period of time, the plant-protective efficacy in % is determined. 100% means that no damage is evident; 0% means that the damage to the treated plant corresponds to that of the untreated control.

[11] = tested on: L2 larvae of the banded cucumber beetle (Diabrotica balteata); test: Diabrotica balteata drench test (DIABBA); format: in vivo; details: 8 dat
Method: Diabrotica balteata—Drench Test (DIABBA) Solvent: 7 parts by weight of dimethylformamide Emulsifier: 2 parts by weight of alkylaryl polyglycol ether To produce a suitable active compound formulation, 1 part by weight of active compound is mixed with the specified amounts of solvent and emulsifier, and the concentrate is diluted with water to the desired concentration, it being necessary to include the volume of soil which is drenched in the calculation. It should be ensured that a concentration of 40 ppm of emulsifier in the soil is not exceeded. To produce further test concentrations, water is used for dilution. […] After one day, 25 L2 larvae of the banded cucumber beetle (Diabrotica balteata) are added. After 8 days, the efficacy in % is determined 100% means that all 5 plants have germinated and grown; 0% means that none of the plants has emerged.

For `CCn1c(C(=O)NC(c2ccc(F)c(C(F)(F)F)c2)C(F)F)cc2cc(C(=O)NC3(C(N)=S)CC3)c(Cl)cc21` (stereo not drawn) [I-32], the “efficacy (laying of fertile eggs)” value [1] was 100%, the “efficacy (kill in %)” value [2] was 100% and the “efficacy (kill in %)” value [3] was 100%. It also gave an efficacy [4] of 90%, an efficacy [5] of 100% and an efficacy [6] of 100%. For the same compound, the efficacy [7] was 100% and the “log P” value [8] was 3.41.
For `CCn1c(C(=O)NC(c2cc(Cl)c(Cl)c(F)c2F)C(F)(F)F)cc2cc(C(=O)NC3(C(N)=S)CC3)c(Cl)cc21` (stereo not drawn) [I-29], the “efficacy (laying of fertile eggs)” value [1] was 100%, the “efficacy (kill in %)” value [2] was 100% and the “efficacy (kill in %)” value [3] was 100%. The “efficacy (kill in %)” value [9] was 100%, the efficacy [4] was 100% and the efficacy [5] was 100%. The efficacy [6] was 100%, the efficacy [7] was 90% and the “log P” value [8] was 4.27.
In the case of `Cn1c(C(=O)NC(c2ccc(Cl)c(C(F)(F)F)c2)C(F)(F)F)cc2cc(C(=O)NC3(C(N)=S)CC3)c(Cl)cc21` (stereo not drawn) [I-16], the “efficacy (laying of fertile eggs)” value [1] is reported as 100%, the “efficacy (kill in %)” value [2] is reported as 100% and the “efficacy (kill in %)” value [3] is reported as 100%. For the same compound, the “efficacy (kill in %)” value [9] was 100%, the efficacy [5] was 100% and the efficacy [6] was 100%. The efficacy [7] was 100%, the “% efficacy (plant-protective)” value ([10]; 0.8 ppm) was 90% and the “% efficacy (plant-protective)” value ([10]; 4 ppm) was 90%. For the same compound, the “% efficacy” value ([11]; 4 ppm) was 50%, the “% efficacy” value ([11]; 20 ppm) was 100% and the “log P” value [8] was 3.70.
With `Cn1c(C(=O)NC(c2cc(Cl)c(Cl)c(Cl)c2)C(F)(F)F)cc2cc(C(=O)NC3(C(N)=S)CC3)c(Cl)cc21` (stereo not drawn) [I-20] the “efficacy (laying of fertile eggs)” value [1] was 100%, the “efficacy (kill in %)” value [2] was 100% and the “efficacy (kill in %)” value [3] was 100%. For the same compound, the “efficacy (kill in %)” value [9] was 100%, the efficacy [4] was 90% and the efficacy [5] was 100%. The efficacy [6] was 100%, the “% efficacy” value ([6]; SPODFR, 0.8 g/ha, 7 dat) was 100% and the “% efficacy” value ([6]; SPODFR, 4 g/ha, 7 dat) was 100%. For the same compound, the efficacy [7] was 100% and the “log P” value [8] was 4.07.
In the case of `CCn1c(C(=O)NC(c2cccc(C(F)(F)F)c2)C(F)(F)F)cc2cc(C(=O)NC3(C(N)=S)CC3)c(Cl)cc21` (stereo not drawn) [reference compound], the Emax at 0.8 g/ha ([6]; Spodoptera frugiperda, 168 h, SPODFR, 0.8 g/ha, 7 dat, read-out: % efficacy) is reported as 33%, the % efficacy (mortality) at a single application rate at 4 g/ha ([6]; Spodoptera frugiperda, 168 h, SPODFR, 4 g/ha, 7 dat) is reported as 100% and the Emax at 4 g/ha ([7]; Tetranychus urticae, 144 h, TETRUR, 4 g/ha, 6 dat, read-out: % efficacy) is reported as 70%. For the same compound, the Emax at 20 g/ha ([7]; Tetranychus urticae, 144 h, TETRUR, 20 g/ha, 6 dat, read-out: % efficacy) was 100%, the Emax at 0.8 ppm ([10]; Thrips, 168 h, 0.8 ppm, read-out: % efficacy (plant-protective)) was 60% and the Emax at 4 ppm ([10]; Thrips, 168 h, 4 ppm, read-out: % efficacy (plant-protective)) was 98%. The Emax at 4 ppm ([11]; Diabrotica balteata, soil, 192 h, 4 ppm, read-out: % efficacy) was 70% and the Emax at 20 ppm ([11]; Diabrotica balteata, soil, 192 h, 20 ppm, read-out: % efficacy) was 60%.
